Legend:
[1] = target: T1, Recombinant human Cathepsin B (Homo sapiens, UniProt P07858); assay: Recombinant cathepsin labeling, competition assay, iodinated probes; assay type: biochemical; conditions: probe 2 hour, then GB123 30 minutes
T1 construct: made in house
Method: (§1) Recombinant cathepsin labeling, competition assay: Recombinant human Cathepsin L (0.5 μg), Cathepsin B (0.5 μg) were incubated the indicated concentrations of targeted or control iodinated activity based probes (CT-ABP) in reaction buffer (50 mM acetate, 2 mM DTT and 5 mM MgCl2, pH 5.5) for 120 minutes at 37° C. After probe incubation, residual cathepsin activity was labeled with GB123 for 30 minutes. The reaction was stopped by addition of sample buffer ×4 (40% glycerol, 0.2 M Tris/HCl, pH 6.8, 20% beta-mercaptoethanol, 12% SDS and 0.4 mg/ml bromophenol blue). Samples were then boiled, separated on a 12.5% SDS gel and scanned for fluorescence by a Typhoon scanner FLA 9500 at excitation/emission wavelengths of 645/670 nm.
(§2) The biochemical evaluation of the new probes started with evaluation for their ability to bind recombinant human cathepsins B or Cathepsin L. Recombinant human cathepsins B was incubated with increasing concentrations of the probes for 2 hour. Residual activity was detected by a fluorescently labeled cathepsin ABP GB 123 that was added to samples for 30 minutes at r.t. […] Next, residual cathepsins activity was labeled by GB123 1 μM during 2 hours. Cell lysates were separated on SDS-PAGE followed by scanning the gel for fluorescence to visualize labeling of residual cathepsins activity by GB123 (FIGS. 11C and 11F).
(§3) Recombinant human cathepsins B was incubated with increasing concentrations of the probes for 2 hour. Residual activity was detected by a fluorescently labeled cathepsin ABP that was added to samples for 30 minutes at r.t. The free probe was separated from the enzyme-probe complex by SDS PAGE, the detection of the probe-enzyme complex was done by a fluorescent scanning of the gel at Cy5 fluorescence, FIG. 12. […] To assure that the binding is dependent on protease activity, a control were performed HG87, HG94 and HG97 lacking the reactive moiety. […] Evaluation of I-CT-ABPs in intact cells. […] Next, residual cathepsins activity was labeled by GB123 1 μM during 2 hours. Cell lysates were separated on SDS-PAGE followed by scanning the gel for fluorescence at: 645/670 nm to visualize labeling of residual cathepsins activity by GB123 (FIG. 12E). […] Recombinant human cathepsins B was incubated with increasing concentrations of the Cy5 labelled probes for 2 hour. The free probe was separated from the enzyme-probe complex by SDS PAGE, the detection of the probe-enzyme complex was done by a fluorescent scanning of the gel at Cy5 fluorescence. […] The binding of the all the Cy5 labelled probes occur in an activity-dependent manner. Direct labeling in intact cells. The assay was carried out by incubation of NIH-3T3 cells with Cy5 labelled iodine tagged probes for 24 hours. Cell lysates were separated on SDS-PAGE followed by scanning the gel for fluorescence at: 645/670 nm to visualize labeling of residual cathepsins activity by GB123. […] For the PEGylated I-CT-ABP HG93 and HG32 also observed that recombinant cathepsin activity and cell permeability, it's difficult to quantify the selective inhibition due to enhanced permeation and retention (EPR) effect.

[2] = target: T2, Recombinant human Cathepsin L (Homo sapiens, UniProt P07711); assay: as above; assay type: biochemical; conditions: probe 2 hour, then GB123 30 minutes
T2 construct: made in house
Method: as §1, §2, §3

[3] = tested on: NIH-3T3 cells; assay: In vitro cytotoxicity, methylene blue assay, I-CT-ABPs; assay type: cell-based, mouse; conditions: NIH-3T3, 10 μM, 48 hours
Method: In vitro Cytotoxicity Assays. Methylene Blue assays were performed in 96-well plates; NIH-3T3 cells (5×10^3 cells/well) were seeded in a 96-well plate one day before treatment. Cells were treated with indicated concentrations of targeted IABNs and non-targeted nanomaterials that were pre-dissolved in 0.1% DMSO in the culture medium. Cells were incubated for 24 h and 48 h and cells were fixed with 2.5% glutaraldehyde incubation for 10 min. Cells were washed with water and borate buffer (0.1M, pH=8.5), Cell number was determined by staining cells with the addition of 100 μl per well of 1% Methylene Blue in borate buffer, followed by incubation at room temperature for at least 1 hour. The stain was aspirated and the plates rinsed by immersion in water, followed by immersion in deionized water. The plates were air-dried and then the stain was released from cells by the addition of 200 μl/well 0.1 N HCl solutions. After 1 hour incubation at 37° C., the absorbance of each […] at 620 nm was determined on a Cytation 3 microplate reader.
Cytotoxicity study of the I-CT-ABPs, the toxic response to the systematically varied physico-chemical properties of successive PAMAM dendrimers. In vitro cytotoxicity of I-CT-ABPs to NIH-3T3 cell lines was investigated. Viability assay was performed for assessment of the cytotoxicity of each I-CT-ABP to the NIH-3T3 cell lines using the methylene blue method.

T2 sequence (P07711 114-333): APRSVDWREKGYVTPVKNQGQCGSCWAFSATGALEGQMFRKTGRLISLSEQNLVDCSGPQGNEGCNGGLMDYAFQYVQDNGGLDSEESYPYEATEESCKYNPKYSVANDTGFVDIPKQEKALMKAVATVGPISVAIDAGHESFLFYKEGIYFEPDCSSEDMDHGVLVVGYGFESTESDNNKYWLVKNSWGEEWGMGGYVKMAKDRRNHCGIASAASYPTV

Row | binding to recombinant cathepsin B, competitive assay [1] | binding to recombinant cathepsin L, competitive assay [2] | Substance | toxicity (viability assay) [3]
1 | no inhibition was detected | no inhibition was detected | (IPA)16(NH2)16-G3 [HG87] | slight toxicity
2 | no inhibition was detected | no inhibition was detected | (IPA)16(PEG-4)16-G3 [HG94] | –
3 | no inhibition was detected | no inhibition was detected | (IPA)16(PEG-750)16-G3 [HG97] | –

Source: US11344634B2, “Activity based probe and uses thereof for imaging” (Yissum Research Development Company of the Hebrew …, priority 2016, dated 2022)
